IC50 data for 21 molecules are collected here from patent US4870183A, “Novel amino acid derivatives” (priority 1986, dated 1989).

In one experiment the target is T1, human renin (Homo sapiens, UniProt P00797).
T1 sequence (P00797 67-406): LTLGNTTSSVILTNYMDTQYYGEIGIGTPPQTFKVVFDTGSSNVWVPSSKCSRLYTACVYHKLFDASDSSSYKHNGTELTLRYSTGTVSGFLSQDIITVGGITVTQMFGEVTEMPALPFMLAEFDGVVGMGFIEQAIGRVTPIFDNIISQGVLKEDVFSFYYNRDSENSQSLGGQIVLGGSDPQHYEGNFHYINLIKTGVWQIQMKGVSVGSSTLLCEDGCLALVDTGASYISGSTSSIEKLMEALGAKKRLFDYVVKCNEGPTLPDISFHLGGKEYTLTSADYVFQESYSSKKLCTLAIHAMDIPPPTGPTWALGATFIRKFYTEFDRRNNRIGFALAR
As to the kind of experiment: Inhibitory effect on human renin-sheep renin substrate reaction system in vitro. The class given is biochemical. Here is the method:
Inhibitory effect on human renin-sheep renin substrate reaction system in vitro
The mixture was incubated for 15 minutes on a water bath at 37° C., and the reaction mixture was allowed to stand for 5 minutes on a water bath at 100° C. to stop the reaction. After cooling, 200 μl of the solution was taken up and the amount of angiotensin I produced by the addition of renin was determined by radioimmunoassay using renin riabead kit (DAINABOT).
The inhibitory effect was calculated by the following equation.
As a control, the same procedure as above was carried out by using 50 μl of dimethyl sulfoxide alone in place of the 50 μl of dimethyl sulfoxide solution containing an amino acid compound of the present invention. [formula]

The target in experiment [1] is T2, renin in human high renin plasma (Homo sapiens, UniProt P00797).
T2 construct: from tissue; host or cells: human high renin plasma
T2 sequence (P00797 67-406): T1 sequence (P00797 67-406)
As to the kind of experiment: Renin inhibitory effect in a human high renin plasma. The class given is biochemical. The protocol:
Renin Inhibitory Effect in a Human High Renin Plasma
Two hundred μl of the mixture was placed on an ice bath, at 4° C., and remaining mixture (800 μl) was incubated for 60 minutes at 37° C. on a water bath. Two hundred μl of the incubated remaining mixture was chilled immediately on an ice bath, and the amount (A) of angiotensin I produced was determined by radioimmunoassay using renin riabead kit (DAINABOT).
The amount (B) of angiotensin I in the mixture placed on an ice bath at 4° C. was also determined by radioimmunoassay.
As a control, the same procedure as above was carried out by using 100 μl of dimethyl sulfoxide alone in place of 100 μl of dimethyl sulfoxide solution containing an amino acid compound of the present invention.
The net amount was estimated as the difference between A and B.
The inhibitory effect was calculated by the following equation. [formula]

Where [2] appears, read: human renin-sheep renin substrate system, pH 7.4, 37° C., 15 minutes, read-out: IC50 molar concentration.
Setting [3] is: human high renin plasma, pH 7.0, 37° C., 60 minutes, read-out: IC50 molar concentration.

Where two headings read alike, the source gives them in different places.

On to `CC(C)OC(=O)C(O)[C@H](CC1CCCCC1)NC(=O)[C@H](Cc1c[nH]cn1)NC(=O)C(Cc1ccccc1C(F)(F)F)Cc1ccccc1C(F)(F)F` (mixture of isomers) [Compound B, (2RS, 3S)-3-{N-[Bis(2-trifluoromethylbenzyl)acetyl]-L-histidyl}amino-4-cyclohexyl-2-hydroxybutyric acid isopropyl ester], for which the IC50 against human renin was 120 nM; in experiment [1], 1200 nM.
Turning to `CC(C)OC(=O)C(O)[C@H](CC1CCCCC1)NC(=O)[C@H](Cc1c[nH]cn1)NC(=O)C(Cc1cccc(F)c1)Cc1cccc(F)c1` (mixture of isomers) [Compound D, (2RS, 3S)-3-{N-[Bis(3-fluorobenzyl)acetyl]-L-histidyl}amino-4-cyclohexyl-2-hydroxybutyric acid isopropyl ester], the IC50 against human renin was found to be 18 nM; in experiment [1], 250 nM.
Taken in the same sequence, the figures for `CC(C)OC(=O)C(O)[C@H](CC1CCCCC1)NC(=O)[C@H](Cc1c[nH]cn1)NC(=O)C(Cc1ccccc1)Cc1ccccc1` (mixture of isomers) [Compound E, (2RS, 3S)-3-[N-(dibenzylacetyl)-L-histidyl}amino-4-cyclohexyl-2-hydroxybutyric acid isopropyl ester] were 52 nM and 260 nM.
As for `Cc1cccc(C)c1CC(Cc1c(C)cccc1C)C(=O)N[C@@H](Cc1c[nH]cn1)C(=O)N[C@@H](CC1CCCCC1)C(O)C(=O)OC(C)C` (mixture of isomers) [Compound G, (2RS, 3S)-3-{N-[Bis(2,6-dimethylbenzyl)acetyl]-L-histidyl}amino-4-cyclohexyl-2-hydroxybutyric acid isopropyl ester], the IC50 came out at 900 nM on human renin and 3300 nM in experiment [1].
Taken in the same sequence, the figures for `CC(C)OC(=O)C(O)[C@H](CC1CCCCC1)NC(=O)[C@H](Cc1c[nH]cn1)NC(=O)C(Cc1ccccc1Br)Cc1ccccc1Br` (mixture of isomers) [Compound I, (2RS, 3S)-3-{N-[Bis(2-bromobenzyl)acetyl]-L-histidyl}amino-4-cyclohexyl-2-hydroxybutyric acid isopropyl ester] were 18 nM and 430 nM.
Taken in the same sequence, the figures for `CC(C)OC(=O)C(O)[C@H](CC1CCCCC1)NC(=O)[C@H](Cc1c[nH]cn1)NC(=O)C(Cc1ccc(Cl)cc1)Cc1ccc(Cl)cc1` (mixture of isomers) [Compound J, (2RS, 3S)-3-{N-[Bis(4-chlorobenzyl)acetyl]-L-histidyl}amino-4-cyclohexyl-2-hydroxybutyric acid isopropyl ester] were 470 nM and 5900 nM.
The like results for `O=C(N[C@@H](Cc1c[nH]cn1)C(=O)N[C@@H](CC1CCCCC1)C(O)C(=O)OC1CCCC1)C(Cc1ccccc1)Cc1ccccc1` (mixture of isomers) [Compound K, (2RS, 3S)-3-[N-(dibenzylacetyl)-L-histidyl]amino-4-cyclohexyl-2-hydroxybutyric acid cyclopentyl ester] were, in that order, 18 nM and 280 nM.
Consider `CC(C)OC(=O)C(O)[C@H](CC1CCCCC1)NC(=O)[C@H](Cc1c[nH]cn1)NC(=O)C(Cc1cccc2ccccc12)Cc1cccc2ccccc12` (mixture of isomers) [Compound L, (2RS, 3S)-3-{N-[Bis(1-naphthylmethyl)acetyl]-L-histidyl}amino-4-cyclohexyl-2-hydroxybutyric acid isopropyl ester], for which the IC50 came out at 49 nM on human renin and 430 nM in experiment [1].
The like results for `Cc1cccc(CC(Cc2cccc(C)c2C)C(=O)N[C@@H](Cc2c[nH]cn2)C(=O)N[C@@H](CC2CCCCC2)C(O)C(=O)OC(C)C)c1C` (mixture of isomers) [Compound M, (2RS, 3S)-3-{N-[Bis(2,3-dimethylbenzyl)acetyl]-L-histidyl}amino-4-cyclohexyl-2-hydroxybutyric acid isopropyl ester] were, in that order, 77 nM and 860 nM.
The like results for `O=C(N[C@@H](Cc1c[nH]cn1)C(=O)N[C@@H](CC1CCCCC1)C(O)C(=O)OC1CCCC1)C(Cc1ccccc1F)Cc1ccccc1F` (mixture of isomers) [Compound N, (2RS, 3S)-3-{N-[Bis(2-fluorobenzyl)acetyl]-L-histidyl}amino-4-cyclohexyl-2-hydroxybutyric acid cyclopentyl ester] were, in that order, 29 nM and 230 nM.
The like results for `Cc1cccc(CC(Cc2cccc(C)c2)C(=O)N[C@@H](Cc2c[nH]cn2)C(=O)N[C@@H](CC2CCCCC2)C(O)C(=O)OC(C)C)c1` (mixture of isomers) [Compound Q, (2RS, 3S)-3-{N-[Bis(3-methylbenzyl)acetyl]-L-histidyl}amino-4-cyclohexyl-2-hydroxybutyric acid isopropyl ester] were, in that order, 60 nM and 540 nM.
`COc1ccccc1CC(Cc1ccccc1OC)C(=O)N[C@@H](Cc1c[nH]cn1)C(=O)N[C@@H](CC1CCCCC1)C(O)C(=O)OC(C)C` (mixture of isomers) [Compound R, (2RS, 3S)-3-{N-[Bis(2-methoxybenzyl)acetyl]-L-histidyl}amino-4-cyclohexyl-2-hydroxybutyric acid isopropyl ester]: the IC50 on human renin was determined as 170 nM; in experiment [1] it was 360 nM.
As to `CC(C)OC(=O)C(O)[C@H](CC1CCCCC1)NC(=O)[C@H](Cc1c[nH]cn1)NC(=O)C(Cc1ccccc1C#N)Cc1ccccc1C#N` (mixture of isomers) [Compound T, (2RS, 3S)-3-{N-[Bis(2-cyanobenzyl)acetyl]-L-histidyl}amino-4-cyclohexyl-2-hydroxybutyric acid isopropyl ester], the IC50 on human renin is 190 nM; in experiment [1] it was 280 nM.
Taken in the same sequence, the figures for `CC(C)OC(=O)C(O)[C@H](CC1CCCCC1)NC(=O)[C@H](Cc1c[nH]cn1)NC(=O)C(Cc1ccc2c(c1)OCO2)Cc1ccc2c(c1)OCO2` (mixture of isomers) [Compound V, (2RS, 3S)-3-{N-[Bis(3,4-methylenedioxybenzyl)acetyl]-L-histidyl}amino-4-cyclohexyl-2-hydroxybutyric acid isopropyl ester] were 910 nM and 2600 nM.
Taken in the same sequence, the figures for `Cc1ccccc1CC(Cc1ccccc1C)C(=O)N[C@@H](Cc1c[nH]cn1)C(=O)N[C@@H](CC1CCCCC1)C(O)C(=O)OC(C)C` (mixture of isomers) [Compound W, (2RS, 3S)-3-{N-[Bis(2-methylbenzyl)-acetyl]-L-histidyl}amino-4-cyclohexyl-2-hydroxybutyric acid isopropyl ester] were 58 nM and 280 nM.
Taken in the same sequence, the figures for `CC(C)CNC(=O)C(O)[C@H](CC1CCCCC1)NC(=O)[C@H](Cc1c[nH]cn1)NC(=O)C(Cc1cccc2c1OCO2)Cc1cccc2c1OCO2` (mixture of isomers) [Compound Y, (2RS, 3S)-3-{N-[Bis(2,3-methylenedioxybenzyl)acetyl]-L-histidyl}amino-4-cyclohexyl-2-hydroxybutyric acid isobutyl amide] were 1800 nM and 3400 nM.
Take `CC(C)OC(=O)C(O)[C@H](CC1CCCCC1)NC(=O)[C@H](Cc1c[nH]cn1)NC(=O)C(Cc1ccc(F)cc1)Cc1ccc(F)cc1` (mixture of isomers) [Compound O, (2RS, 3S)-3-{N-[Bis(4-fouorobenzyl)acetyl]-L-histidyl}amino-4-cyclohexyl-2-hydroxybutyric acid isopropyl ester]: the IC50 at human renin (setting [2]) is 68 nM; in experiment [1] (setting [3]), 1200 nM.
Take `CC(C)OC(=O)C(O)[C@H](CC1CCCCC1)NC(=O)[C@H](Cc1c[nH]cn1)NC(=O)C(Cc1ccccc1O)Cc1ccccc1O` (stereo partly drawn) [Compound C, (2RS 3S)-3-{N-[Bis(2-hydroxybenzyl)acetyl]-L-histidyl}amino-4-cyclohexyl-2-hydroxybutyric acid isopropyl ester]: the results for the IC50 (at human renin (setting [2]); in experiment [1] (setting [3])) were 180 nM and 400 nM, respectively.
Regarding `O=C(N[C@@H](Cc1cnc[nH]1)C(=O)N[C@@H](CC1CCCCC1)C(O)C(=O)OC(CF)CF)C(Cc1ccccc1)Cc1ccccc1` (stereo partly drawn) [Compound P], the figures for the IC50 (against human renin; in experiment [1]) were 19 nM and 130 nM, respectively.
As for “(2RS, 3)-3-{N-[Bis(2-fluorobenzyl)acetyl]-L-histidyl}amino-4-cyclohexyl ester [Compound S]”, the values for the IC50 (at human renin (setting [2]); in experiment [1] (setting [3])) were 62 nM and 430 nM, respectively.
Taken in the same sequence, the figures for “(2RS, 3S)-3-{N-[Bis(2-chlorobenzyl)acetyl]-L-histidyl}amino-4-cyclohexyl-2-hydroxybutyric acid butyric acid isopropyl ester [Compound U]” were 63 nM and 430 nM.
